One molecule from patent US20060135480A1, “Derivatives of succinic and glutaric acids and analogs thereof useful as inhibitors of phex” (Enobia Pharma, priority 2002, published 2006) can be followed below.

In assay [1] the test system is rat mandibular defect. Kind of assay: Bone lesion repair in rat mandibular defect model (hydroxyapatite particles soaked in inhibitor). The class given is in vivo. As to conditions: for bone formation (scanning electron microscopy, % of total defect area): 14 days of healing. How it is done: Osteogenic properties of PHEX inhibitors can be shown in a model of rat mandibular defect. For example, a 2 mm size bone defect was created in the rat mandible as described previously (Vu et al., 1999). Rats were anesthetized and the vestibular surface of the right mandibular ramus was exposed as follow: an incision was made through the skin along an imaginary line forming a 90° angle with the lower lip to access the muscle layer. A scalpel blade was used to make an incision parallel to the fibers of the deep portion of masseter muscle, about 2 mm posterior to the facial artery (largest branch of the external carotid), in the portion where it gives rise to the labial mandibular artery. The periosteum was elevated and the underlying bony surface exposed. A 2 mm×2 mm bony window was drilled between the second and third molar using a slow-speed dental drill with a carbide round burr size 1.4 mm (Brasseler) and a drill size 2 mm (Straumann Canada Ltd). Saline irrigation was used during the drilling. Porous hydroxyapatite particles (Fin-Ceramica Faenza s.r.l.) with pore size ranged from 450 to 600 μm were accommodated in the bony hole and pushed into it. The particles had been incubated previously in solutions of varying concentrations of PHEX inhibitor or vehicle for 16 to 24 hours at 4° C. Once the bony window was filled the lesion was covered with a membrane of hydroxyapatite (Fin-Ceramica Faenza s.r.l.) which was fixed to the surrounding bone surface with topical tissue adhesive. The muscle fibers were carefully repositioned on the mandible and sutured with absorbable surgical sutures (Chromic Gut, Ethicon Inc.). The skin was sutured for total coverage with silk sutures (Sherwood Davis & Geck, Wayne). After 7 days of treatment the bone lesion was exposed and varying concentrations of PHEX inhibitor or vehicle was reapplied to hydroxyapatite particles. Treatment was continued for another 7 days.
After the 14 day healing period, bone formation at the defect was evaluated by scanning electron microscopy and microcomputed tomography. Animals were sacrificed by intravascular perfusion through the left ventricle with 4% paraformaldehyde and 0.1% glutaraldehyde solution. Treated hemimandibles were taken, immersed in the fixative overnight at 4° C. then washed and kept in 0.1 M cacodylate buffer pH 8.0 until analysis. Specimens for quantification by scanning electron microscopy were dehydrated in a graded alcohol series and embedded in LR White resin (Marivac) for further sectioning along their longitudinal axis. […] Amount of bone tissue present in the sections was quantified by manual tracing using the MOP-3 system (Carl Zeiss) and was expressed as a percentage of the total defect area.

The target in assay [2] is T1, sPHEX (Homo sapiens, UniProt P78562).
T1 construct: The soluble form of the metallopeptidase PHEX (sPHEX) was purified to homogeneity; made in house
T1 sequence (P78562 53-749 limits assumed): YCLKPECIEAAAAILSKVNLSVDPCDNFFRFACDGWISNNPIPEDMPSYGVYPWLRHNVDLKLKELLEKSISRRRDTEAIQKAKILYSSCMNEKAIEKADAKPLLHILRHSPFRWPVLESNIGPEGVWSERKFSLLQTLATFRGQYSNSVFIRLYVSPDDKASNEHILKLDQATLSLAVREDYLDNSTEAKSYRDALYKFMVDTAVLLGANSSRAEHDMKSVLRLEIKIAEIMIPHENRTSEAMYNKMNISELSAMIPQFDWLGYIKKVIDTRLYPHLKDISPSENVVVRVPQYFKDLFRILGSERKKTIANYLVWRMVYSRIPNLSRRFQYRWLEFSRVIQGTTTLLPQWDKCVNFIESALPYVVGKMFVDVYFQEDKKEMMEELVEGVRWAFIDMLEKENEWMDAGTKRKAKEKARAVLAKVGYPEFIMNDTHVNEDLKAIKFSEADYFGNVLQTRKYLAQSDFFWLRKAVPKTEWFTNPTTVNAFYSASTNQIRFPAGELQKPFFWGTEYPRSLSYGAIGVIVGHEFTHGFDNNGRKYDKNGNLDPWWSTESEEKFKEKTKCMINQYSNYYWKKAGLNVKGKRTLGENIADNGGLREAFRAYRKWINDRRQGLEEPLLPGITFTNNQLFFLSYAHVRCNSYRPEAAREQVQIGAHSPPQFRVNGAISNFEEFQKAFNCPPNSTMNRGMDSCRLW
As to the kind of experiment: Protection of PHEX substrate PTHrP107-139 from sPHEX degradation (RP-HPLC). The class given is biochemical. As to conditions: 1×10^−5 M inhibitor, 15 min preincubation, 30 min at 37° C. How it is done: In general, in order to show inhibition of sPHEX, the enzyme is incubated in the absence or the presence of the inhibiting compound, and a substrate is added in conditions that are suitable for sPHEX enzymatic activity. Hydrolysis of the substrate in the absence or the presence of the inhibiting compound is monitored.
For example, 1.0 μg of purified sPHEX was first incubated at 37° C. for 15 min with or without 1×10^−5M of compound MH-2-64C (FIG. 1) in 90 μl 50 mM MES (2-(N-morpholino) ethanesulfonic acid) pH 6.5, 150 mM NaCl. Then, 2.5 μg of peptide PTHrP107-139 in 10 μl of the same buffer were added and the incubation continued for 30 min. The reaction mixture also contained 1.3 μg of the amino acid Phe which was used as an internal standard. After the incubation period, the reaction was stopped by the addition of EDTA to a final concentration of 5 mM. Detection of cleavage products was performed by reverse phase high performance liquid chromatography (RP-HPLC) on a C18 μBondapak™ analytical column (Waters, Mississauga, ON, Canada) with a UV detector set at 220 nm. […] Results were quantified by comparing the area under the undigested peak of PTHrP107-139, after normalization for the amount of Phe present in the sample.

In the case of `O=C(O)CC(CC(=O)NO)C(=O)NCCc1ccc(-c2ccccc2)cc1` (centres unmarked) [Example 126, 3-(2-Biphenyl-4-yl-ethylcarbamoyl)4-hydroxycarbamoyl-butyric acid], the “bone formation (scanning electron microscopy, % of total defect area)” value in assay [1] (1×10^−5 M on hydroxyapatite particles, compared to saline) is “reduced significantly”; in assay [1] (lower concentrations on hydroxyapatite particles) it was “significantly stimulated”. In addition, the “bone formation (microcomputed tomography 3D reconstruction)” value in assay [1] (high inhibitor dose, one representative specimen per group) is “reduced bone formation”. For the same molecule, the “bone around particles (microcomputed tomography 3D reconstruction)” value in assay [1] (low dose of inhibitor vs saline, one representative specimen per group) is recorded as “more bone”. Also, the “degradation of PTHrP107-139 by sPHEX” value in assay [2] is on record as “fully prevented”.
